From PubChem BioAssay AID1117331
Calls of active or inactive are those of the source. The rule behind the calls is not given here.

Test system: INS-1E rat insulinoma, insulin secretion, 5 mM glucose
Experiment: cell-based inhibition of insulin secretion, rat insulinoma INS-1E, 5 mM glucose, concentration response (AID 1117331)

In the case of `Cc1ccc([N+](=O)[O-])[c]2c1[O][Hg]2`, the IC50 is reported as > 33.3 µM (inactive).
